{"source": "ChEMBL document CHEMBL1146468", "about": "“Plakolide A, a new gamma-lactone from the marine sponge Plakortis sp” (J Nat Prod, 2004)", "key": {"PANC-1": {"system": "PANC-1", "assay": "Cytotoxicity against human PANC1 cells after 72 hrs by MTT assay", "type": "functional, cell-based", "details": "PANC-1, 72 h"}, "[1]": {"assay": "Cytotoxicity against human NCI/ADR cells after 72 hrs by MTT assay", "type": "functional, cell-based", "details": "NCI/ADR-RES"}, "A549": {"system": "A549", "assay": "Cytotoxicity against human A549 cells after 72 hrs by MTT assay", "type": "functional, cell-based", "details": "A549, 72 h"}, "P388": {"system": "P388", "assay": "Cytotoxicity against mouse P388 cells after 72 hrs by MTT assay", "type": "functional, cell-based", "details": "P388, 72 h"}, "[2]": {"assay": "Cytotoxicity against mouse RAW264.7 cells assessed as cell viability at 1.3 ug/ml after 3 hrs by MTT assay", "type": "cell-based", "details": "read-out: Activity"}, "[3]": {"biological_target": "T1, Nitric oxide synthase, inducible (Mus musculus, UniProt P29477)", "T1 sequence (P29477 whole entry)": "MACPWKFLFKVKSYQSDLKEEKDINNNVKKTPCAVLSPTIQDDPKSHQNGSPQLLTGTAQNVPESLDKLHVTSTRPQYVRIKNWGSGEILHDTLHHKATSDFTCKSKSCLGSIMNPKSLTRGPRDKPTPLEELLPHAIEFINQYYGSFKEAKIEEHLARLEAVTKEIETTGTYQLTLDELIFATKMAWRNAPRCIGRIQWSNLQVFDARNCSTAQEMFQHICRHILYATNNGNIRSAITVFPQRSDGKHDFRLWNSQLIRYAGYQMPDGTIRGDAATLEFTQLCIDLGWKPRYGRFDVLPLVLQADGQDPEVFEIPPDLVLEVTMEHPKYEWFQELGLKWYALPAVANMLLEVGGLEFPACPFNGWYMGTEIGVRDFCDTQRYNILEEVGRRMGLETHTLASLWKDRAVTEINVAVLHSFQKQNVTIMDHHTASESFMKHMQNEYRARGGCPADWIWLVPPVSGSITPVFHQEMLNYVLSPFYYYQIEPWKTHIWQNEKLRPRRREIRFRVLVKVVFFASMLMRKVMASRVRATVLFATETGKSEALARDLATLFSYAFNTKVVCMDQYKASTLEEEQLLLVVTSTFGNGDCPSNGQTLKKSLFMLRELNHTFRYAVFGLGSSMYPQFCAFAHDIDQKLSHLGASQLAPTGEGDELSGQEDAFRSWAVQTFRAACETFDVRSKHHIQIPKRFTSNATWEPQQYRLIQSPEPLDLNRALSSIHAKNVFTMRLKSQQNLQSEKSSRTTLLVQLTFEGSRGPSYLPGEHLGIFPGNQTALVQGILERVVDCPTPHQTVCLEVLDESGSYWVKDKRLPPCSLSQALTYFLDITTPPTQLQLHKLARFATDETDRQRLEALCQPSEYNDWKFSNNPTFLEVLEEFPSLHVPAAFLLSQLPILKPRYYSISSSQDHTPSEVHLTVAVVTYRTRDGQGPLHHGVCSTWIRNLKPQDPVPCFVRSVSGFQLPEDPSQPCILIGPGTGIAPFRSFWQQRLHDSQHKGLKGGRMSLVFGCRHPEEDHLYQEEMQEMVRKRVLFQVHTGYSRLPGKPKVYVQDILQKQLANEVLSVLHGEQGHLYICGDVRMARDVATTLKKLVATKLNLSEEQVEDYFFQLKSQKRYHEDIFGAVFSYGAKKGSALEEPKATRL", "assay": "Inhibition of iNOS-mediated NO production in LPS-stimulated mouse RAW264.7 cells by Griess method", "type": "cell-based"}}, "data": [{"compound": "C=C1C[C@@](C)(/C=C/C=C/CCCCCCCC)OC1=O", "note": "[PLAKOLIDE A]", "values": [{"measurement": "IC50", "setting": "PANC-1", "result": 3.8, "unit": "µg/mL"}, {"measurement": "IC50", "setting": "[1]", "result": 3.7, "unit": "µg/mL"}, {"measurement": "IC50", "setting": "A549", "result": 5, "unit": "µg/mL"}, {"measurement": "IC50", "setting": "P388", "result": 1.1, "unit": "µg/mL"}, {"measurement": "viability at 3 h, 1.3 ug/ml", "setting": "[2]", "result": 50, "unit": "%"}, {"measurement": "IC50", "setting": "[3]", "result": 724, "unit": "nM"}]}]}
